{"source": "paper PMC8748766", "about": "“The catalytic activity of TCPTP is auto-regulated by its intrinsically disordered tail and activated by Integrin alpha-1” (Nature Communications, 2022)", "key": {"[1]": {"target": "T1, TCPTP (Homo sapiens, UniProt P17706)", "T1 construct": "fragments of TCPTP (residues: 1–387); His6 (N, cleaved yes); made in house; host or cells: E. coli BL21 (DE3) RIL", "T1 sequence (P17706 1-387 isoform P17706-2)": "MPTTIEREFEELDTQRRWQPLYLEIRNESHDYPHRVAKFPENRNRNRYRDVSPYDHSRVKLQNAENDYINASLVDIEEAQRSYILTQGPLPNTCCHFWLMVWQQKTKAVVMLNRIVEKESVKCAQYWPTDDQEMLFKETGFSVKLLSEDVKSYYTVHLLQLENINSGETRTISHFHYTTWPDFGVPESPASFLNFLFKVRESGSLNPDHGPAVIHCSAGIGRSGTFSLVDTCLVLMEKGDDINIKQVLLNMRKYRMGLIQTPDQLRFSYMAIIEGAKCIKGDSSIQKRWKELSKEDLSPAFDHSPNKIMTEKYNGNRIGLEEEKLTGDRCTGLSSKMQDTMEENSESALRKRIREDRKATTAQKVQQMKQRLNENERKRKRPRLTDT", "assay": "Kinetics of TCPTP with saturating ITGA1 peptide, pEGFR peptide-2 substrate", "format": "biochemical", "conditions": "TCPTP saturated with ITGA1 peptide (ITGA1_TR 1 μM; ITGA1_FCT 25 μM), mean ± SE, n = 9", "excerpt": "(§1) Polymerase chain reaction (PCR) fragments of TCPTP (residues: 1–387) TCPTPCAT (catalytic domain, residues: 1–288, 1–302 or 1–314), TCPTPTail (C-terminal tail, residues: 289–387 or 303–387) were amplified from full-length human TCPTP (TC45 isoform). TCPTP, TCPTPCAT (residues: 1–288, 1–314), and TCPTPTail (residues: 289–387) fragments were cloned into pMCSG7 including a N-terminal His6-tag using ligation-independent cloning. For all NMR experiments, the PCR fragments of TCPTP, TCPTPCAT (residues: 1–302) and TCPTPTail (residue: 303–387) were sub-cloned into pRP1B as previously described.\n(§2) The rate of dephosphorylation of TCPTP and TCPTPCAT (residue 1–314) against 2 phosphotyrosine peptides derived from EGFR was monitored either with or without ITGA1 peptide (ITGA1_FCT & ITGA1_TR) in assay buffer (25 mM Hepes pH 7.4, 50 mM NaCl and 1 mM DTT). Lyophilized powder of all synthetic peptides was dissolved in assay buffer without DTT (phosphopeptides, 5 mM; ITGA1 peptides, 2 mM). For the kinetic analysis, the concentration of the enzyme was fixed at 1 nM while the substrate (phosphopeptides) concentration was varied from 2.5 μM to 160 μM in a total reaction volume of 200 μl. Effect of ITGA1 peptide on TCPTP & TCPTPCAT kinetics were assessed in saturated condition by adding an excess amount of ITGA1 peptide to the reaction mixture (ITGA1_TR = 1 μM; ITGA1_FCT = 25 μM). The reaction was incubated at 30 °C for 30 min and stopped by the addition of 30 μl phosphate reagent (phosphate colorimetric assay kit; Bio Vision) following the manufacturer’s instructions. Data were normalized and fitted using a nonlinear curve, and kinetics parameters (KM and kcat) were calculated from the Michaelis-Menten equation using Graph Pad Prism 9.0. All data points in the enzyme kinetics experiment were measured in triplicate, and the experiments were repeated three times."}, "[2]": {"target": "T2, TCPTPCAT (Homo sapiens, UniProt P17706)", "T2 construct": "TCPTP and TCPTPCAT (residue 1–314) against 2 phosphotyrosine peptides derived from EGFR; His6 (N, cleaved yes); made in house; host or cells: E. coli BL21 (DE3) RIL", "T2 sequence (P17706 1-314 isoform P17706-2)": "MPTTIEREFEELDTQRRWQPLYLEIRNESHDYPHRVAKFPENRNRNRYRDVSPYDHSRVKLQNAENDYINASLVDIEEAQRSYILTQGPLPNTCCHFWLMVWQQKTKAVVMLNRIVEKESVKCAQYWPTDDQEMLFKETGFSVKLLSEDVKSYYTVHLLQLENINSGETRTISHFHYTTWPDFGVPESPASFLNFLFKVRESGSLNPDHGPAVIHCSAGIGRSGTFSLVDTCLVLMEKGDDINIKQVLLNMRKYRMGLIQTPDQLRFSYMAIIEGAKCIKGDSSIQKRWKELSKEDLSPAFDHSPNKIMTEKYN", "assay": "Kinetics of TCPTPCAT with saturating ITGA1 peptide, pEGFR peptide-2 substrate", "format": "biochemical", "conditions": "TCPTPCAT saturated with ITGA1 peptide (ITGA1_TR 1 μM), mean ± SE, n = 9", "excerpt": "as §1, §2"}, "[3]": {"target": "T2, TCPTPCAT", "assay": "NMR titration (2D HSQC/TROSY) binding to TCPTPCAT", "conditions": "2D [1H,15N] TROSY, unlabeled ligand added", "excerpt": "as §1\nNMR data were collected on either Bruker NEO 600 MHz or 800 MHz spectrometers equipped with TCI HCN z-gradient cryoprobes at 298 K or 283 K. NMR measurements of TCPTP’s variant construct were recorded using (^1H,^15N)-, (^2H,^15N)-, (^1H,^15N,^13C), or (^2H,^15N,^13C)-labeled protein at a final concentration of 0.6 mM for backbone assignment or 0.1 mM for titration in NMR buffer and 90% H2O/10% D2O. The sequence-specific backbone assignments of TCPTP (residues 1–387), TCPTPCAT (residues 1–302), TCPTPTail (residues 303–387) and other variants were achieved using 3D triple resonance experiments including […], 3D HNCA, 3D HN(CO)CA, 3D HN(CO)CACB, and 3D HNCACB either as HSQC or TROSY variations. All NMR data were processed using TopSpin 4.0.5[44] and analyzed using either CARA (http://www.cara.nmr.ch) and/or CcpNMR[45]."}, "[4]": {"conditions": "pEGFR peptide-2, pH 7.4, 30 °C 30 min"}}}
{"sequence": "RPLKKKMEKRPLKKKMEK [ITGA1_TR, ITGA1 tandem repeat (2x ITGA1_TCT): …]", "values": [{"measurement": "kcat", "setting": "[1]; [4]", "result": "34.7 ± 2.3", "unit": "s⁻¹"}, {"measurement": "Km", "setting": "[1]; pEGFR peptide-2", "result": "40.9 ± 6.8", "unit": "µM"}, {"measurement": "kcat/Km", "setting": "[1]; pEGFR peptide-2", "result": "0.8 ± 0.1", "unit": "µM -1s-1"}, {"measurement": "kcat", "setting": "[2]; [4]", "result": "35.6 ± 0.6", "unit": "s⁻¹"}, {"measurement": "Km", "setting": "[2]; pEGFR peptide-2", "result": "28.3 ± 1.3", "unit": "µM"}, {"measurement": "kcat/Km", "setting": "[2]; pEGFR peptide-2", "result": "1.2 ± 0.1", "unit": "µM -1s-1"}, {"measurement": "NMR titration: CSPs in (2H,15N)-labeled TCPTPCAT", "setting": "[3]", "result": "significant CSPs in the same residues"}]}
